Data published in the C3SDB collision cross section collection.

Details: [M+H]+; instrument: TW; Major Mix IMS/Tof Calibration Kit (Waters)

collision cross section (N2)	SMILES
187.2 Å²	CN(C/C=C/C#CC(C)(C)C)Cc1cccc2ccccc12 [Terbinafine]
197 Å²	CCOC(=O)[C@H](CCc1ccccc1)N[C@@H](C)C(=O)N1[C@H](C(=O)O)C[C@@H]2CCC[C@@H]21 [Ramipril]
169.6 Å²	COc1ccc(CN(CCN(C)C)c2ccccn2)cc1 [Mepyramine]
183.7 Å²	CN1CCN(CCCN2c3ccccc3Sc3ccc(Cl)cc32)CC1 [Prochlorperazine]
192.7 Å²	COc1cc2nc(N3CCN(C(=O)c4ccco4)CC3)nc(N)c2cc1OC [Prazosin]
214.6 Å²	Cc1ccc(NC(=O)c2ccc(CN3CCN(C)CC3)cc2)cc1Nc1nccc(-c2cccnc2)n1 [Imatinib]
186.4 Å²	N#Cc1ccc2c(c1)N(CCCN1CCC(O)CC1)c1ccccc1S2 [Periciazine]
196.3 Å²	CS(=O)(=O)c1ccc2c(c1)N(CCCN1CCC(C(N)=O)CC1)c1ccccc1S2 [Metopimazine]
171 Å²	CNCC[C@H](Oc1cccc2ccccc12)c1cccs1 [Duloxetine]
193.7 Å²	O=C(CCCN1CCC(O)(c2ccc(Cl)cc2)CC1)c1ccc(F)cc1 [Haloperidol]
170.9 Å²	CN1C(C(=O)Nc2ccccn2)=C(O)c2ccccc2S1(=O)=O [Piroxicam]
166.8 Å²	CC(CN(C)C)CN1c2ccccc2Sc2ccccc21 (stereo not given) [Alimemazine]
184.9 Å²	CSc1ccc2c(c1)N(CCC1CCCCN1C)c1ccccc1S2 (stereo not given) [Thioridazine]
208.2 Å²	Cc1cccc(CN2CCN(C(c3ccccc3)c3ccc(Cl)cc3)CC2)c1 (stereo not given) [Meclozine]
132.4 Å²	Cc1ncc([N+](=O)[O-])n1CCO [Metronidazole]
173.7 Å²	Cc1nccn1CC1CCc2c(c3cccc(O)c3n2C)C1=O (stereo not given) [Ondansetron-M 8-hydroxy]
164.2 Å²	CNCC[C@@H](Oc1ccccc1C)c1ccccc1 [Atomoxetine]

collision cross section (N2)	SMILES
176.8 Å²	COc1ccc2c(c1)N(C[C@H](C)CN(C)C)c1ccccc1S2 [Levomepromazine]
192.6 Å²	O=C1Cc2cc(CCN3CCN(c4nsc5ccccc45)CC3)c(Cl)cc2N1 [Ziprasidone]
151 Å²	Cc1cc(NS(=O)(=O)c2ccc(N)cc2)no1 [Sulfamethoxazole]
219.8 Å²	CCCCc1oc2ccccc2c1C(=O)c1cc(I)c(OCCNCC)c(I)c1 [Amiodarone-M N-Desethyl]
164.5 Å²	CNCCC=C1c2ccccc2CCc2ccccc21 [Triptyline-M nor]
167.6 Å²	CN1C[C@@H]2c3ccccc3Oc3ccc(Cl)cc3[C@H]2C1 [Asenapine]
182.2 Å²	CCOC(=O)C1=C(C)NC(C)=C(C(=O)OC)C1c1cccc([N+](=O)[O-])c1 (stereo not given) [Nitrendipine]
187.4 Å²	CCOC(=O)N1CCC(=C2c3ccc(Cl)cc3CCc3cccnc32)CC1 [Loratadine]
139.4 Å²	CCOc1ccc(NC(C)=O)cc1 [Phenacetin]
175.8 Å²	CN(C)CCc1c[nH]c2ccc(CS(=O)(=O)N3CCCC3)cc12 [Almotriptan]
170.8 Å²	COc1cc(Cc2cnc(N)nc2N)cc(OC)c1OC [Trimethoprim]
184.5 Å²	Cc1ccsc1C(=CCCN1CCC[C@@H](C(=O)O)C1)c1sccc1C [Tiagabine]
193.2 Å²	OCCN1CCN(CCCN2c3ccccc3Sc3ccc(Cl)cc32)CC1 [Perphenazine]
156.3 Å²	COc1ccc2cccc(CCNC(C)=O)c2c1 [Agomelatine]
140.7 Å²	CN1C(=O)CC[C@H]1c1cccnc1 [Cotinine]
192.6 Å²	CC1=C(CC(=O)O)c2cc(F)ccc2/C1=C\c1ccc(S(C)=O)cc1 (stereo not given) [Sulindac]
155.1 Å²	CC(C(=O)O)c1ccc(C(=O)c2ccccc2)s1 (stereo not given) [Tiaprofenic acid]

SMILES	collision cross section (N2)
CN1C(=O)CN=C(c2ccccc2)c2cc(Cl)ccc21 [Diazepam]	164.2 Å²
COc1ccc2c3c1O[C@H]1C(=O)CC[C@@]4(O)[C@@H](C2)N(C)CC[C@]314 [Oxycodone]	168.3 Å²
O=C1C[N+]([O-])=C(c2ccccc2)c2cc(Cl)ccc2N1 [Demoxepam]	161.7 Å²
O=C1Nc2ccc(Cl)cc2C(c2ccccc2)=NC1O (stereo not given) [Oxazepam]	162.3 Å²
CC[C@@H](c1cccc(O)c1)[C@@H](C)CN(C)C [Tapentadol]	152.1 Å²
COc1ccc2c3c1O[C@H]1[C@@H](O)C=C[C@H]4[C@@H](C2)N(C)CC[C@@]341 [Codeine]	168.2 Å²
CNC(=O)C(CCN1CCC(O)(c2ccc(Cl)cc2)CC1)(c1ccccc1)c1ccccc1 [Loperamide-M Desmethyl]	218.7 Å²
C/C=C1\N(C)C(C)CC1(c1ccccc1)c1ccccc1 (stereo not given) [EDDP]	166.2 Å²
CNC(C)C(=O)c1ccc(F)cc1 (stereo not given) [Flephedrone]	139.8 Å²
COC(=O)[C@H]1[C@@H](OC(=O)c2ccccc2)C[C@@H]2CC[C@H]1N2C [Cocaine]	169.8 Å²
COC(=O)C(c1ccccc1)C1CCCCN1 (stereo not given) [Methylphenidate]	154.2 Å²
CNC(C)Cc1ccc2c(c1)OCO2 (stereo not given) [MDMA]	144.9 Å²
COc1ccc2c3c1O[C@H]1C(=O)CC[C@H]4[C@@H](C2)N(C)CC[C@]314 [Hydrocodone]	167.4 Å²
O=C1CC(=O)N(c2ccccc2)c2cc(Cl)ccc2N1 [Clobazam-M nor]	161.7 Å²
CCOC(=O)CC(SP(=S)(OC)OC)C(=O)OCC (stereo not given) [Malathion]	165.9 Å²
CO[C@]12CC[C@@]3(C[C@@H]1[C@](C)(O)C(C)(C)C)[C@H]1Cc4ccc(O)c5c4[C@@]3(CCN1CC1CC1)[C@H]2O5 [Buprenorphine]	209.7 Å²
c1ccc(C(c2ccccc2)C2CCCCN2)cc1 (stereo not given) [Desoxypipradrol]	164.1 Å²
CCC(=O)C(CC(C)N(C)C)(c1ccccc1)c1ccccc1 (stereo not given) [Methadone]	177.7 Å²
C[C@@H](N)Cc1c2ccoc2c(Br)c2ccoc12 [Bromodragonfly]	158.1 Å²
CN(C)CCc1c[nH]c2cccc(OP(=O)(O)O)c12 [Psilocybine]	157.3 Å²
C[C@]12Cc3cn[nH]c3C[C@@H]1CC[C@@H]1[C@@H]2CC[C@@]2(C)[C@H]1CC[C@]2(C)O [Stanozolol]	188.1 Å²
